The experiment concerns monocistronic NK5.1 HCV replicon in Huh7 cells. In words: HCV replicon assay, monocistronic replicon cell line. The experiment is classed as cell-based, hepatitis C virus. The following applies: Hepatitis C virus, Huh-7, 72 h; table T3 (compounds 471-640); monocistronic replicon in Huh7 cells, 3 days incubation, HCV RNA/GAPDH RNA by TaqMan RT-PCR; read-out: Mono EC50 Median. The gist of the method:
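EC50 derives from the HCV RNA/GAPDH RNA ratio by one-step TaqMan RT-PCR, relative to DMSO-only wells. Compounds (six half-log concentrations, 0.6% DMSO) were incubated 3 days at 37 °C with NK5.1 monocistronic replicon Huh7 cells plated a day earlier.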
In general terms: A replicon is a self-replicating genome or part of one, used to study replication in cells.

pEC50: −log10 of the molar value.

A word on the pEC50: it is the negative decadic logarithm of the EC50, by convention in mol/L. Consider `Oc1ccccc1-c1nc(-c2ccc(C(F)(F)F)cn2)n[nH]1` [Compound 518, 2-[5-(5-trifluoromethyl-pyridin-2-yl)-2H-[1,2,4]triazol-3-yl]-phenol], for which the pEC50 was < 4.72.

On to `COc1cccc(-c2nc(-c3ccc(C(F)(F)F)cn3)n[nH]2)c1O` [Compound 519, 6-Methoxy-2-[5-(5-trifluoromethyl-pyridin-2-yl)-2H-[1,2,4]triazol-3-yl]-phenol], for which the pEC50 was < 4.72.

On to `O=[N+]([O-])c1cccc(-c2nc(-c3ccc(C(F)(F)F)cn3)n[nH]2)c1` [Compound 520, 2-[5-(3-Nitro-phenyl)-1H-[1,2,4]triazol-3-yl]-5-trifluoromethyl-pyridine], for which the negative logarithm of the EC50 (pEC50) was < 4.72.

Consider `CCN(CC)c1ccc(-c2nc(-c3ccc(C(F)(F)F)cn3)n[nH]2)c(O)c1` [Compound 521, 5-Diethylamino-2-[5-(5-trifluoromethyl-pyridin-2-yl)-2H-[1,2,4]triazol-3-yl]-phenol], for which the pEC50 is < 4.72.

Turning to `Oc1ccc(O)c(-c2nc(-c3ccc(C(F)(F)F)cn3)n[nH]2)c1` [Compound 522, 4-Hydroxy-2-[5-(5-trifluoromethyl-pyridin-2-yl)-2H-[1,2,4]triazol-3-yl]-phenol], the pEC50 is < 4.72.

Turning to `COc1cccc(-c2nc(-c3ccc(C(F)(F)F)cn3)n[nH]2)c1` [Compound 523, 2-[5-(3-Methoxy-phenyl)-1H-[1,2,4]triazol-3-yl]-5-trifluoromethyl-pyridine], the pEC50 was < 4.72.

`COc1ccc(F)c(-c2nc(-c3ccc(C(F)(F)F)cn3)n[nH]2)c1` [Compound 524, 2-[5-(2-Fluoro-5-methoxy-phenyl)-1H-[1,2,4]triazol-3-yl]-5-trifluoromethyl-pyridine]: the pEC50 is < 4.72.

Consider `Oc1ccc2ccccc2c1-c1nc(-c2ccc(C(F)(F)F)cn2)n[nH]1` [Compound 525, 1-[5-(5-trifluoromethyl-pyridin-2-yl)-2H-[1,2,4]triazol-3-yl]-naphthalen-2-ol], for which the negative-log EC50 (pEC50) is < 4.72.

As for `FC(F)(F)c1ccc(-c2n[nH]c(-c3cccc(Br)c3)n2)nc1` [Compound 526, 2-[5-(3-Bromo-phenyl)-1H-[1,2,4]triazol-3-yl]-5-trifluoromethyl-pyridine], the pEC50 was < 4.72.

For `FC(F)(F)c1ccc(-c2n[nH]c(-c3c(Cl)cccc3Cl)n2)nc1` [Compound 527, 2-[5-(2,6-Dichloro-phenyl)-1H-[1,2,4]triazol-3-yl]-5-trifluoromethyl-pyridine], the pEC50 is < 4.72.

For `Fc1cc(Br)ccc1-c1nc(-c2ccc(C(F)(F)F)cn2)n[nH]1` [Compound 528, 2-[5-(4-Bromo-2-fluoro-phenyl)-1H-[1,2,4]triazol-3-yl]-5-trifluoromethyl-pyridine], the pEC50 is < 4.72.

For `COc1ccc(Br)cc1-c1nc(-c2ccc(C(F)(F)F)cn2)n[nH]1` [Compound 529, 2-[5-(5-Bromo-2-methoxy-phenyl)-1H-[1,2,4]triazol-3-yl]-5-trifluoromethyl-pyridine], the pEC50 was < 4.72.

In the case of `FC(F)(F)c1cccnc1-c1n[nH]c(-c2cccc3ccccc23)n1` [Compound 530, 2-(5-Naphthalen-1-yl-1H-[1,2,4]triazol-3-yl)-3-trifluoromethyl-pyridine], the pEC50 was < 4.72.

Turning to `CC(C)(C)c1ccc(O)c(-c2nc(-c3ncccc3C(F)(F)F)n[nH]2)c1` [Compound 531, 4-tert-Butyl-2-[5-(3-trifluoromethyl-pyridin-2-yl)-2H-[1,2,4]triazol-3-yl]-phenol], the pEC50 was < 4.72.

Turning to `O=[N+]([O-])c1ccc(O)c(-c2nc(-c3ncccc3C(F)(F)F)n[nH]2)c1` [Compound 532, 4-Nitro-2-[5-(3-trifluoromethyl-pyridin-2-yl)-2H-[1,2,4]triazol-3-yl]-phenol], the negative logarithm of the EC50 (pEC50) is < 4.72.

As to `Oc1ccc(F)cc1-c1nc(-c2ncccc2C(F)(F)F)n[nH]1` [Compound 533, 4-Fluoro-2-[5-(3-trifluoromethyl-pyridin-2-yl)-2H-[1,2,4]triazol-3-yl]-phenol], the pEC50 is < 4.72.

As to `COc1ccc(O)c(-c2nc(-c3ncccc3C(F)(F)F)n[nH]2)c1` [Compound 534, 4-Methoxy-2-[5-(3-trifluoromethyl-pyridin-2-yl)-2H-[1,2,4]triazol-3-yl]-phenol], the negative logarithm of the EC50 (pEC50) is 5.64.

On to `Oc1ccc(Cl)cc1-c1nc(-c2ncccc2C(F)(F)F)n[nH]1` [Compound 535, 4-Chloro-2-[5-(3-trifluoromethyl-pyridin-2-yl)-2H-[1,2,4]triazol-3-yl]-phenol], for which the pEC50 is 5.39.

Turning to `CCOc1cccc(-c2nc(-c3ncccc3C(F)(F)F)n[nH]2)c1O` [Compound 536, 6-Ethoxy-2-[5-(3-trifluoromethyl-pyridin-2-yl)-2H-[1,2,4]triazol-3-yl]-phenol], the negative logarithm of the EC50 (pEC50) is < 4.72.

Consider `Oc1cc(OCc2ccccc2)ccc1-c1nc(-c2ncccc2C(F)(F)F)n[nH]1` [Compound 537, 5-Benzyloxy-2-[5-(3-trifluoromethyl-pyridin-2-yl)-2H-[1,2,4]triazol-3-yl]-phenol], for which the pEC50 is < 4.72.

Turning to `Fc1cc(-c2nc(-c3ncccc3C(F)(F)F)n[nH]2)ccc1-c1ccccc1` [Compound 538, 2-[5-(2-Fluoro-biphenyl-4-yl)-1H-[1,2,4]triazol-3-yl]-3-trifluoromethyl-pyridine], the pEC50 is < 4.72.

On to `Oc1ccc(Br)cc1-c1nc(-c2ncccc2C(F)(F)F)n[nH]1` [Compound 539, 4-Bromo-2-[5-(3-trifluoromethyl-pyridin-2-yl)-2H-[1,2,4]triazol-3-yl]-phenol], for which the negative-log EC50 (pEC50) was 6.46.

On to `Cc1ccc(O)c(-c2nc(-c3ncccc3C(F)(F)F)n[nH]2)c1` [Compound 540, 4-Methyl-2-[5-(3-trifluoromethyl-pyridin-2-yl)-2H-[1,2,4]triazol-3-yl]-phenol], for which the pEC50 is < 4.72.

Turning to `COc1ccc(-c2nc(-c3ncccc3C(F)(F)F)n[nH]2)c(O)c1` [Compound 541, 5-Methoxy-2-[5-(3-trifluoromethyl-pyridin-2-yl)-2H-[1,2,4]triazol-3-yl]-phenol], the pEC50 was < 4.72.

For the molecule `Oc1ccccc1-c1nc(-c2ncccc2C(F)(F)F)n[nH]1` [Compound 542, 2-[5-(3-trifluoromethyl-pyridin-2-yl)-2H-[1,2,4]triazol-3-yl]-phenol], the pEC50 is < 4.72.

For `COc1cccc(-c2nc(-c3ncccc3C(F)(F)F)n[nH]2)c1O` [Compound 543, 6-Methoxy-2-[5-(3-trifluoromethyl-pyridin-2-yl)-2H-[1,2,4]triazol-3-yl]-phenol], the negative-log EC50 (pEC50) was < 4.72.

With `O=[N+]([O-])c1cccc(-c2nc(-c3ncccc3C(F)(F)F)n[nH]2)c1` [Compound 544, 2-[5-(3-Nitro-phenyl)-1H-[1,2,4]triazol-3-yl]-3-trifluoromethyl-pyridine], the pEC50 is < 4.72.

As to `CCN(CC)c1ccc(-c2nc(-c3ncccc3C(F)(F)F)n[nH]2)c(O)c1` [Compound 545, 5-Diethylamino-2-[5-(3-trifluoromethyl-pyridin-2-yl)-2H-[1,2,4]triazol-3-yl]-phenol], the pEC50 was < 4.72.

As for `Oc1ccc(O)c(-c2nc(-c3ncccc3C(F)(F)F)n[nH]2)c1` [Compound 546, 4-Hydroxy-2-[5-(3-trifluoromethyl-pyridin-2-yl)-2H-[1,2,4]triazol-3-yl]-phenol], the pEC50 is < 4.72.

With `COc1cccc(-c2nc(-c3ncccc3C(F)(F)F)n[nH]2)c1` [Compound 547, 2-[5-(3-Methoxy-phenyl)-1H-[1,2,4]triazol-3-yl]-3-trifluoromethyl-pyridine], the pEC50 is < 4.72.

In the case of `CC(C)c1ccc(-c2nc(-c3ncccc3C(F)(F)F)n[nH]2)cc1` [Compound 548, 2-[5-(4-Isopropyl-phenyl)-1H-[1,2,4]triazol-3-yl]-3-trifluoromethyl-pyridine], the negative logarithm of the EC50 (pEC50) was < 4.72.

In the case of `Oc1ccc2ccccc2c1-c1nc(-c2ncccc2C(F)(F)F)n[nH]1` [Compound 549, 1-[5-(3-trifluoromethyl-pyridin-2-yl)-2H-[1,2,4]triazol-3-yl]-naphthalen-2-ol], the negative-log EC50 (pEC50) is < 4.72.

Turning to `FC(F)(F)c1cccnc1-c1n[nH]c(-c2cccc(Br)c2)n1` [Compound 550, 2-[5-(3-Bromo-phenyl)-1H-[1,2,4]triazol-3-yl]-3-trifluoromethyl-pyridine], the pEC50 was < 4.72.

`FC(F)(F)c1cccnc1-c1n[nH]c(-c2c(Cl)cccc2Cl)n1` [Compound 551, 2-[5-(2,6-Dichloro-phenyl)-1H-[1,2,4]triazol-3-yl]-3-trifluoromethyl-pyridine]: the pEC50 is < 4.72.

Turning to `Fc1cc(Br)ccc1-c1nc(-c2ncccc2C(F)(F)F)n[nH]1` [Compound 552, 2-[5-(4-Bromo-2-fluoro-phenyl)-1H-[1,2,4]triazol-3-yl]-3-trifluoromethyl-pyridine], the pEC50 was < 4.72.

On to `COc1ccc(Br)cc1-c1nc(-c2ncccc2C(F)(F)F)n[nH]1` [Compound 553, 2-[5-(5-Bromo-2-methoxy-phenyl)-1H-[1,2,4]triazol-3-yl]-3-trifluoromethyl-pyridine], for which the negative logarithm of the EC50 (pEC50) is < 4.72.

As for `COc1ccc(O)c(-c2nc(-c3ncccc3[N+](=O)[O-])n[nH]2)c1` [Compound 554, 4-Methoxy-2-[5-(3-nitro-pyridin-2-yl)-2H-[1,2,4]triazol-3-yl]-phenol], the pEC50 was < 4.72.

In the case of `Nc1cccnc1-c1n[nH]c(-c2cc(Br)ccc2O)n1` [Compound 555, 2-[5-(3-amino-pyridin-2-yl)-2H-[1,2,4]triazol-3-yl]-4-bromo-phenol], the negative logarithm of the EC50 (pEC50) is < 5.49.

`O=[N+]([O-])c1cccnc1-c1n[nH]c(-c2cc(Br)ccc2O)n1` [Compound 556, 4-Bromo-2-[5-(3-nitro-pyridin-2-yl)-2H-[1,2,4]triazol-3-yl]-phenol]: the pEC50 is < 5.49.

Turning to `Nc1cccnc1-c1n[nH]c(-c2c(O)ccc3ccccc23)n1` [Compound 557, 1-[5-(3-amino-pyridin-2-yl)-2H-[1,2,4]triazol-3-yl]-naphthalen-2-ol], the pEC50 was < 5.49.

Source of the values: patent US20050075375A1 (priority 2003, published 2005).
